The text below walks through data of patent US7572436B1, “Thionin as an antineoplastic and immunostimulant” (priority 2000, dated 2009).

Data set [1] relates to B16F10 melanoma tumor cells. Put plainly: In vivo inhibition of B16F10 melanoma tumor development. The arrangement: species or system C57BL/6NCr female mice. How it is done: C57BL/6NCr female mice (20 g), approximately 50 days old, were shaved in the abdominal area, ear notched for identification, and, two or three days prior to receiving tumor cells, pre-injected subcutaneously with the immunostimulating drugs described.
On “day zero,” B16F10 melanoma tumor cells, cultured in αMEM medium with 10% FBS, were injected intradermally (10^5 cells in 0.1 ml) in the center of the mouse abdomen using a 26 gauge ½ inch needle. Four to five hours later, the drug treatment (as specified) was injected intradermally in a different area of the abdomen than the site of the tumor injection.
Intradermal treatments using the immunostimulatory drug (as specified) continued either every other day or on a Monday-Wednesday-Friday injection schedule. Control tumors (in mice not receiving an immunostimulatory drug) usually formed within seven to ten days. Tumors were examined by visual inspection, measured (length by width), and the area of any resulting lesion was recorded as mm^2 every five days.
Mice were euthanized by CO2 inhalation if the tumor exceeded 500 mm^2. Some experiments were terminated early if all mice in the control group were dead, but the experiments were not less than 20 days. The normal duration of an experiment was about 30 days.
Pyrularia thionin, both alone and in combination with IL-2, was effective in preventing or retarding the development of melanoma tumors when C57BL/6NCr mice were pretreated before injection with B16F10 cells, which produce melanoma tumors.

Data set [2] concerns murine Balb/C splenocytes. Put plainly: Binding of ^125I-labeled PT to mouse spleen cells. As to conditions: for Kd: ^125I-PT. The source says: Splenocytes are isolated from the spleens of selected mice (as described herein), treated to remove red cells, resuspended in PBS after washing, and counted using Trypan Blue exclusion. The average yield of spleen cells (splenocytes) from one spleen is 1−1.5×10^8 cells. A desired concentration of cells per sample tube in the binding assay is more than 5×10^6 cells/ml.
The protocol for the binding assay has been previously described (Vernon and Rogers, Toxicon 30:711-721, 1992). Reactions were carried out in a total volume of 400 μl in each microcentrifuge tube (160 μl PBS with ^125I-labeled PT at varying concentrations with 240 μl of spleen cell suspensions).
A total of 10^7 spleen cells were placed in each of the reaction microfuge tubes, and allowed to equilibrate at room temperature for five minutes. To each tube was added radiolabeled thionin (e.g., ^125I-PT) in amounts from 0.1 to 20 μg/ml. The radiolabeled PT used in the experiments contained approximately 10^6 counts/minute (0.3 μCi) per μg PT. The suspension was incubated at room temperature for 10 minutes, then placed on ice for an additional 10 minutes. The tubes were then centrifuged to pellet the cells.
The radioactivity in the supernatant fluid was determined from an aliquot removed from the tube. The plastic pipette tip used to transfer the aliquot was also put in the vial and counted in a gamma ray counter along with the transferred aliquot of the supernatant fluid, since this tip may absorb PT from the aliquot during transfer. The radioactivity amount determined represents the “free” PT, not bound to a cell.
After removal of the entire supernatant, the sedimented cells were washed twice in PBS, and the entire final washed suspension of cells was transferred to a vial for radioactivity counting. As with measurement of radioactivity in the supernatant, the pipette tip used to transfer the cell sample was added to the vial to include any PT that might be bound to the plastic tip. This measures the total “bound” PT.
Non-specific binding was determined in the presence of a 100-fold excess of non-radioactive iodinated PT. The binding data reported were obtained by subtracting the non-specific from the total binding. Triplicate assays were performed for each concentration of PT employed.

The subject of data set [3] is membrane structure of cells or phospholipid vesicles. As to conditions: reported in the literature; begin around this value and continue up to and above 20 μg/ml; cited from earlier work.

“And” between values parts separate entries of the source, which are not always exact repeats. Equal entries are not always repeated. Where two headings read alike, the source gives them in different places. Where no end group is shown, it is not given here.

In the case of “Pyrularia thionin (KSCCRNTWARNCYNVCRLPGTISREICAKKCDCKIISGTTCPSDYPK; ends and bridges not checked; also: labeled with 125I) [PT]”, the “development of tumors compared to mice injected with saline” value in data set [1] (3 μg PT (with or without 100 units murine IL-2) sc five and two days prior to B16 cells and three times weekly thereafter) is given as “slowed the development of tumors”. Besides, the “Average Tumor Size” value in data set [1] (B16 melanoma in C57 mice, sc 3 μg PT, 100 units IL-2, 20-31 days) is 191 mm^2. Also, the “Number of Deaths” value in data set [1] (B16 melanoma in C57 mice, sc 3 μg PT, 100 units IL-2, total mice 12 (IL-2), 15 (PT), 24 (PT + IL-2)) is recorded as 1. The “Mice w/o Tumors” value in data set [1] (B16 melanoma in C57 mice, sc 3 μg PT, 100 units IL-2, total mice 12 (IL-2), 15 (PT), 24 (PT + IL-2), 20-31 days) turned out to be 1. In data set [1] (B16 melanoma, Table 2 and FIG. 2), the “remission of established tumors” value is “did not cause remission of established tumors”. Moreover, the “PT dose giving the best response” value in data set [1] (PT injected along with IL-2, per mouse) turned out to be 3 µg. For the same substance, the “PT dose with little protection” value in data set [1] (per mouse, with IL-2) was more than 5 µg. Further, in data set [2] (PT up to 1 μg/ml, read-out: dissociation constant, high affinity binding site), the Kd is 65 nM and ~65 nM. For the same substance, the Kd in data set [2] (PT up to 20 μg/ml, read-out: dissociation constant, low affinity binding site) was 1600 nM and ~1600 nM. For the same substance, in data set [2] (murine spleen cells), the “number of sites per cell, high affinity site” value was 1.4×10^5 and the “number of sites per cell, low affinity site” value is 1×10^6. In addition, in data set [3], the “concentrations required to induce changes in the membrane structure of cells or phospholipid vesicles” value is not below 1 µg/mL.
